The target of experiment [1] is T1, recombinant human BCAT1 enzyme (Homo sapiens, UniProt P54687).
T1 construct: purchased ATGen (South Korea) ATGP1479
T1 sequence (P54687 1-386): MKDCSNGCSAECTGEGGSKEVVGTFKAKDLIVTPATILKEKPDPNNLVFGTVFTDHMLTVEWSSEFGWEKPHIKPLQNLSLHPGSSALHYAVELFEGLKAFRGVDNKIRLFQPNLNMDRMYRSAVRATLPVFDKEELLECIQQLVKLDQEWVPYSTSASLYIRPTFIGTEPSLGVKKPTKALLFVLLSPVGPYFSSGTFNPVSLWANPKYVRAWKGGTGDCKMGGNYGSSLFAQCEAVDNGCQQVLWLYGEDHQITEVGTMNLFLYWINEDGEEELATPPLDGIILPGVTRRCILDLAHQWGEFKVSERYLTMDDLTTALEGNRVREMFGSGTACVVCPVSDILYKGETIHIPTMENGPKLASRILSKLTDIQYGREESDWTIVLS
In words: In vitro assay 1a: BCAT1 biochemical assay (coupled LeuDH/NADH fluorescence readout). How it is done:
(§1) In Vitro Assay 1a and 1b: BCAT1 and BCAT2 Biochemical Assay
(§2) BOAT (Branched chain amino acid transferase) catalyzes transamination of the branched chain amino acid leucine to α-ketoisocaproate (KIC). The BOAT enzymatic reaction was measured in a coupled readout with leucine dehydrogenase (LeuDH) which catalyzes the Nicotinamide adenine dinucleotide (NADH) dependent reduction of KIC to leucine. NADH consumption is measured by fluorescent readout.
(§3) The biochemical reactions were performed at 32° C. in 384-well plates using a reaction volume of 51 μl and the following assay buffer conditions: 50 mM HEPES (2-[4-(2-hydroxyethyl)piperazin-1-yl]ethanesulfonic acid) pH 8.0, 50 mM aqueous solution of ammonium sulfate, 1 mM ethylenediaminetetraacetic acid, 2 mM dithiothreitol, 0.01% bovine serum albumine, 0.005% Brij 35 detergent, 0.5 μM PLP (pyridoxalphosphate), 10 μM NADH, and 50 μM α-ketoglutarate), and 100 μM leucine. […] Test compounds were used in a concentration range between 0.005 and 30 μM. The final DMSO concentration was 2%.
(§4) The reaction was initiated by addition of substrates (Leucine, α-KG, NADH).

The test system of the next experiment is MDA-MB231 cells. In words: In vitro assay 2: BCAT cellular assay, leucine in medium of MDA-MB231 cells. The format is cell-based. The note with it: 24 hours incubation, leucine level in medium (LeuDH/diaphorase/resazurin readout), read-out: MDAMB-231 IC50. How it is done: (§5) In Vitro Assay 2: BCAT Cellular Assay
(§6) Levels of leucine were measured in medium of different tumor cell lines. The enzyme BOAT (Branched chain amino acid transferase) catalyzes the consumption of leucine.
(§7) Cells (U87-MG and MDA-MB231 from ATCC) were grown in Dulbecco's Modified Eagle Medium (DMEM) containing 10% fetal calf serum. They were harvested by trypsin and seeded into 96-well plates. Cells were incubated overnight at 37° C. in an atmosphere containing 5% carbon dioxide. The next day test compounds were added to each cell well. The final concentration of dimethylsulfoxide (DMSO) was 0.1% and DMSO controls were included. The plates were then placed in an incubator for 24 hours.
(§8) Leucine was measured in an enzymatic readout with leucine dehydrogenase (LeuDH) and diaphorase. Medium is deproteinized with perchloric acid. 30 μl of 1 M aqueous perchloric acid was added to each well and the plates were centrifuged.
For orientation: Resazurin is reduced to fluorescent resorufin, in cell work by metabolically active cells.

In experiment [2] the target is T2, recombinant human BCAT2 enzyme (Homo sapiens, UniProt O15382).
T2 construct: purchased ATGen (South Korea) ATGP1523
T2 sequence (O15382 28-392): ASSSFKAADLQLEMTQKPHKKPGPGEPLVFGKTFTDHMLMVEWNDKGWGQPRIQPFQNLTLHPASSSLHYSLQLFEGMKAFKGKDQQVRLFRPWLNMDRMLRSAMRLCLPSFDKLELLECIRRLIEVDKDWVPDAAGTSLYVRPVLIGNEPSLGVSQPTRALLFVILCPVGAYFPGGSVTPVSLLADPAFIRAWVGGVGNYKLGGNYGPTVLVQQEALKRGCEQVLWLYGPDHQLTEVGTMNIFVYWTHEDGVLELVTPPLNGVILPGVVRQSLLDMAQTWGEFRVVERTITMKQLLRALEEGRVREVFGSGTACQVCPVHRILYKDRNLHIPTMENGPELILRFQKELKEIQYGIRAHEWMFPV
The experiment in a line: In vitro assay 1b: BCAT2 biochemical assay (coupled LeuDH/NADH fluorescence readout). On BCAT2 IC50 [M]: recombinant human BCAT2 0.75 nM. As to the method: as §1, §2, §3, §4

A further experiment has as its system U87-MG cells. In words: In vitro assay 2: BCAT cellular assay, leucine in medium of U87-MG cells. The format is cell-based. Particulars: 24 hours incubation, leucine level in medium (LeuDH/diaphorase/resazurin readout). As to the method:
as §5, §6, §7, §8

[3] abbreviates: recombinant human BCAT1 […], 32° C., 100 μM leucine, 50 μM α-ketoglutarate, NADH fluorescence over 90 min, read-out: BCAT1 IC50.
[4] abbreviates: recombinant human BCAT2 […], 32° C., 100 μM leucine, 50 μM α-ketoglutarate, NADH fluorescence over 90 min, read-out: BCAT2 IC50.

Where two headings read alike, the source gives them in different places.

For orientation: IC50 means the concentration that inhibits the measured activity by half. Consider `COc1cc(C#N)c(Oc2ccccc2Cl)cc1-n1c(=O)cc(C(F)(F)F)[nH]c1=O` (racemic) [Example 15, 2-(2-Chlorophenoxy)-4-[2,6-dioxo-4-(trifluoromethyl)-3,6-dihydropyrimidin-1(2H)-yl]-5-methoxybenzonitrile (rac)], for which the IC50 in experiment [1] (setting [3]) amounted to 1.48e-07 M; in the experiment with MDA-MB231 cells (Homo sapiens, MDA-MB-231, 24 h), 17 µM; in experiment [2] (setting [4]), 8.3e-07 M; in the experiment with U87-MG cells (Homo sapiens, U-87 MG, 24 h), 20 µM.
As to `Cc1ccccc1Oc1cc(-n2c(=O)cc(C(=O)NCC(F)(F)F)[nH]c2=O)c(F)cc1C#N` [Example 71, 1-[4-Cyano-2-fluoro-5-(2-methylphenoxy)phenyl]-2,6-dioxo-N-(2,2,2-trifluoroethyl)-1,2,3,6-tetrahydropyrimidine-4-carboxamide], the IC50 in experiment [1] (setting [3]) is 1.75e-06 M; in the experiment on MDA-MB231 cells (Homo sapiens, MDA-MB-231, 24 h), greater than 30 µM; in the experiment with U87-MG cells (Homo sapiens, U-87 MG, 24 h), greater than 30 µM.
Consider `Cc1ccccc1Oc1cc(-n2c(=O)cc(C(F)(F)F)[nH]c2=O)c(C)cc1C#N` (single isomer, unassigned) [Example 9, 4-[2,6-Dioxo-4-(trifluoromethyl)-3,6-dihydropyrimidin-1(2H)-yl]-5-methyl-2-(2-methylphenoxy)benzonitrile (atrop 2)], for which the IC50 in experiment [1] (BCAT1 IC50 [M]) was 8e-08 M; in experiment [2] (BCAT2 IC50 [M]), 9e-07 M; with U87-MG cells it was 1.5 µM.
On to `COc1cc(C#N)c(Oc2ccccc2C)cc1-n1c(=O)cc(-c2ccc(C(F)(F)F)cc2)[nH]c1=O` (racemic) [Example 69, 4-{2,6-Dioxo-4-[4-(trifluoromethyl)phenyl]-3,6-dihydropyrimidin-1(2H)-yl}-5-methoxy-2-(2-methylphenoxy)benzonitrile (rac)], for which the IC50 was 4.5e-06 M in experiment [1] (setting [3]) and greater than 30 µM in the experiment with U87-MG cells (Homo sapiens, U-87 MG, 24 h).
As to `Cc1ccccc1Oc1cc(-n2c(=O)cc(-c3ccc(C(F)(F)F)cc3)[nH]c2=O)c(F)cc1C#N` [Example 68, 4-{2,6-Dioxo-4-[4-(trifluoromethyl)phenyl]-3,6-dihydropyrimidin-1(2H)-yl}-5-fluoro-2-(2-methylphenoxy)benzonitrile], the IC50 in experiment [1] (setting [3]) was found to be 2.16e-06 M; with MDA-MB231 cells (Homo sapiens, MDA-MB-231, 24 h), 9 µM; in the experiment with U87-MG cells (Homo sapiens, U-87 MG, 24 h) it was 7.5 µM.
In the case of `COc1cc(C#N)c(Oc2ccccc2C)cc1-n1c(=O)cc(C(F)(F)F)[nH]c1=O` (single isomer, unassigned) [Example 5, 4-[2,6-Dioxo-4-(trifluoromethyl)-3,6-dihydropyrimidin-1(2H)-yl]-5-methoxy-2-(2-methylphenoxy)benzonitrile (atrop 1)], the half-maximal inhibitory concentration (IC50) in experiment [1] (BCAT1 IC50 [M]) worked out at 1.13e-07 M; in the experiment on U87-MG cells (Homo sapiens, U-87 MG, 24 h), 6 µM.
Regarding `COc1cc(C#N)c(Oc2ccccc2C)cc1-n1c(=O)cc(C(N)=O)[nH]c1=O` (racemic) [Example 73, 1-[4-Cyano-2-methoxy-5-(2-methylphenoxy)phenyl]-2,6-dioxo-1,2,3,6-tetrahydropyrimidine-4-carboxamide (rac)], the IC50 is 9e-07 M in experiment [1] (setting [3]); 5.9e-06 M in experiment [2] (setting [4]); greater than 30 µM in the experiment with U87-MG cells (Homo sapiens, U-87 MG, 24 h).
With `COc1cc(C#N)c(Oc2ccccc2C)cc1-n1c(=O)cc(S(=O)(=O)c2ccccc2)[nH]c1=O` (single isomer, unassigned) [Example 78, 4-[4-(Benzenesulfonyl)-2,6-dioxo-3,6-dihydropyrimidin-1(2H)-yl]-5-methoxy-2-(2-methylphenoxy)benzonitrile (atrop 2)], the IC50 in the experiment on MDA-MB231 cells stood at 3.8 µM; in experiment [2] (setting [4]), 1.4e-07 M; with U87-MG cells it was 12.5 µM.
`Cc1ccccc1Oc1cc(-n2c(=O)cc(C(F)(F)F)[nH]c2=O)c(C)cc1C#N` (single isomer, unassigned) [Example 8, 4-[2,6-Dioxo-4-(trifluoromethyl)-3,6-dihydropyrimidin-1 (2H)-yl]-5-methyl-2-(2-methylphenoxy)benzonitrile (atrop 1)]: the IC50 in experiment [1] (BCAT1 IC50 [M]) came out at 1.1e-06 M; in experiment [2] (BCAT2 IC50 [M]), 9e-06 M; with U87-MG cells, 6 µM.
As for `Cc1ccccc1Oc1cc(-n2c(=O)cc(-c3cccc(Cl)c3)[nH]c2=O)c(F)cc1C#N` [Example 70, 4-[4-(3-Chlorophenyl)-2,6-dioxo-3,6-dihydropyrimidin-1(2H)-yl]-5-fluoro-2-(2-methylphenoxy)benzonitrile], the IC50 in experiment [1] (setting [3]) was 1.33e-06 M; in the experiment on MDA-MB231 cells (Homo sapiens, MDA-MB-231, 24 h) it was greater than 30 µM; in the experiment with U87-MG cells, greater than 30 µM; with U87-MG cells (Homo sapiens, U-87 MG, 24 h) it was 30 µM.
For `COc1cc(Cl)c(Oc2ccccc2C)cc1-n1c(=O)cc(C(F)F)[nH]c1=O` (racemic) [Example 28, 3-[4-Chloro-2-methoxy-5-(2-methylphenoxy)phenyl]-6-(difluoromethyl)pyrimidine-2,4(1H,3H)-dione (rac)], the IC50 came to 2.8e-07 M in experiment [1] (setting [3]); 3.5e-06 M in experiment [2] (setting [4]); 6.2 µM in the experiment on U87-MG cells (Homo sapiens, U-87 MG, 24 h).
In the case of `COc1cc(C#N)c(Oc2ccccc2C)cc1-n1c(=O)cc(S(=O)(=O)c2ccccc2)[nH]c1=O` (single isomer, unassigned) [Example 77, 4-[4-(Benzenesulfonyl)-2,6-dioxo-3,6-dihydropyrimidin-1(2H)-yl]-5-methoxy-2-(2-methylphenoxy)benzonitrile (atrop 1)], the half-inhibitory concentration (IC50) in the experiment with MDA-MB231 cells stood at 16 µM; in experiment [2] (setting [4]) it was 7.7e-07 M; in the experiment on U87-MG cells (Homo sapiens, U-87 MG, 24 h), 16.5 µM.
Regarding `Cc1ccccc1Oc1cc(-n2c(=O)cc(-c3ccccc3)[nH]c2=O)c(F)cc1C#N` [Example 49, 4-(2,6-Dioxo-4-phenyl-3,6-dihydropyrimidin-1(2H)-yl)-5-fluoro-2-(2-methylphenoxy)benzonitrile], the IC50 in experiment [1] (setting [3]) is 6.98e-07 M; in the experiment on MDA-MB231 cells (Homo sapiens, MDA-MB-231, 24 h), greater than 30 µM; in experiment [2] (setting [4]) it was 4.93e-06 M.
In the case of `Cc1ccccc1Oc1cc(-n2c(=O)cc(C(F)(F)C(F)(F)F)[nH]c2=O)c(F)cc1C#N` [Example 52, 4-[2,6-dioxo-4-(pentafluoroethyl)-3,6-dihydropyrimidin-1(2H)-yl]-5-fluoro-2-(2-methylphenoxy)benzonitrile], the half-inhibitory concentration (IC50) in experiment [1] (setting [3]) is 1.35e-06 M; in the experiment on MDA-MB231 cells (Homo sapiens, MDA-MB-231, 24 h) it was 30 µM; in the experiment with U87-MG cells (Homo sapiens, U-87 MG, 24 h), 2.95 µM.
As for `COc1cc(Cl)c(Oc2ccccc2Cl)cc1-n1c(=O)cc(C(F)(F)F)[nH]c1=O` (racemic) [Example 50, 3-[4-Chloro-5-(2-chlorophenoxy)-2-methoxyphenyl]-6-(trifluoromethyl)pyrimidine-2,4(1H,3H)-dione (rac)], the IC50 in experiment [1] (setting [3]) was 7.5e-07 M; in experiment [2] (setting [4]), 5e-06 M; in the experiment on U87-MG cells (Homo sapiens, U-87 MG, 24 h), 3.6 µM.
Turning to `COc1cc(C#N)c(Oc2ccccc2C)cc1-n1c(=O)cc(-c2ccccc2)[nH]c1=O` (racemic) [Example 42, 4-(2,6-Dioxo-4-phenyl-3,6-dihydropyrimidin-1(2H)-yl)-5-methoxy-2-(2-methylphenoxy)benzonitrile (rac)], the half-maximal inhibitory concentration (IC50) in experiment [1] (setting [3]) is 7.25e-07 M; with MDA-MB231 cells (Homo sapiens, MDA-MB-231, 24 h), greater than 30 µM; in experiment [2] (setting [4]) it was 1e-05 M.

The record behind these values is patent US20220411381A1, “PYRIMIDINEDIONE DERIVATIVES” (Bayer Aktiengesellschaft, priority 2019, published 2022).
